Values of other authors in patent publication US8034844B2, “Compositions having a high antiviral efficacy” (The Dial Corporation, priority 2006, dated 2011).

Tested on: rhinoviral infections
Details: vs placebo users

## II [iodine]
  Incidence of colds in users: significantly fewer colds than placebo users
